Measurements reported in patent US7816522B2, “Triazolone derivatives” (Eisai Co., Ltd., priority 2006, dated 2010).
Counter-ions that a name gives are not always drawn.

Molecular target: T1, human clotting factor VIIa (Homo sapiens, UniProt P08709)
T1 construct: a human clotting factor VIIa (hereinafter, “Factor VIIa”) purified sample; purchased Enzyme Research Laboratories HFVIIa
Assay: Inhibitory activity against clotting factor VIIa (chromogenic substrate Spectrozyme FVIIa, TF/Factor VIIa enzyme solution)
Format: biochemical
Conditions: human Factor VIIa 5 nmol/L with human TF 10 nmol/L, room temperature 40 minutes, 405 nm
Protocol: [Inhibitory Activity Against Clotting Factor VIIa]
Dimethylsulfoxide (DMSO) solutions were prepared with compounds of the invention at concentration of 10 mmol/L (10 mmol/L compound solutions).
One packet of tris-hydroxymethylaminomethane-preset (hereinafter referred to as “Tris preset”) (Product of Sigma Corp., Catalog No. T8293), 8.8 g of sodium chloride (NaCl) and 1 g of bovine serum albumin (hereinafter abbreviated as “BSA”) were dissolved in 1 L of water to prepare a Tris-BSA buffer (100 mmol/L Tris, 0.15 mol/L NaCl, 0.1% BSA, pH 7.4).
This Tris-BSA buffer (180 μL) was added to the aforementioned 10 mmol/L compound solution (20 μL). A 10-fold dilution series was prepared for this mixture using the aforementioned Tris-BSA buffer, and solutions with the compound at concentrations of 1.0 mmol/L, 100, 10, 1, 0.1, 0.01 and 0.001 μmol/L were prepared (1.0 mmol-0.001 μmol/L compound solutions). As a control, a solution was prepared by 10-fold dilution of DMSO with the Tris-BSA buffer (hereinafter referred to as “control 10% solution”).
After dissolving one packet of Tris preset, NaCl (8.8 g) and BSA (1 g) in water (about 900 mL), there were added 1 mol/L aqueous calcium chloride (CaCl2) (15 mL) and 1 mg/mL aqueous cephalin (30 mL), and the total volume was brought to 1 L by adding water. To this solution there was added a human tissue factor (hereinafter, “TF”) sample (product of Calbiochem, Catalog No. 612151) (450 μg) to a TF sample concentration of 10 nmol/L, and then a human clotting factor VIIa (hereinafter, “Factor VIIa”) purified sample (product of Enzyme Research Laboratories, Catalog No. HFVIIa) (250 μg) was added to a Factor VIIa purified sample concentration of 5 nmol/L, to prepare an enzyme solution (100 mmol/L Tris-HCl, 0.15 mol/L NaCl, 15 mmol/L CaCl2, 30 μg/mL cephalin, 1 mg/mL BSA, 10 nmol/L TF, 5 nmol/L Factor VIIa).
To 110 μL of this enzyme solution there was added 15 μL of each of the 1.0 mmol-0.001 μmol/L compound solutions, and then 25 μL of a 1.0 mmol/L synthetic chromogenic substrate solution (Spectrozyme FVIIa, product of American Diagnostica, Catalog No. 217L) was added and the mixture was allowed to stand at room temperature for 40 minutes. Next, the amount of 4-nitroanilide released into the solution was quantitated by spectrophotometry (405 nm).
A control measurement was conducted in the same manner, using the control 10% solution instead of the compound solution.
This measurement yielded the enzyme reaction inhibition in the presence of 100 μmol/L to 0.1 nmol/L of each compound of the invention.
The enzyme reaction inhibition at each compound concentration was subjected to non-linear regression analysis, and the IC50 value for inhibitory activity of each compound against clotting factor VIIa was calculated.

T1 sequence (P08709 213-466 limits assumed): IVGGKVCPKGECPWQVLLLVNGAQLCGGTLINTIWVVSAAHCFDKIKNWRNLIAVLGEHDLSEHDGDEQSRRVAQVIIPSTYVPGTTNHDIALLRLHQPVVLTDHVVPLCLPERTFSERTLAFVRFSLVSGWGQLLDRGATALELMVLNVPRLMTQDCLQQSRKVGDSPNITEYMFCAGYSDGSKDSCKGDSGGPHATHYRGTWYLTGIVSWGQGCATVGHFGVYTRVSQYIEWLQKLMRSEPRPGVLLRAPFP
T1 sequence (P08709 61-212 limits assumed): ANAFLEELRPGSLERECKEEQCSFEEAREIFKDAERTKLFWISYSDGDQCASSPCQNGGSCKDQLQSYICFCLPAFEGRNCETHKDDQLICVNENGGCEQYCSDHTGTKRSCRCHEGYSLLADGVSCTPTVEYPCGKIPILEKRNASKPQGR
T1 sequence (P13726 33-295 partner): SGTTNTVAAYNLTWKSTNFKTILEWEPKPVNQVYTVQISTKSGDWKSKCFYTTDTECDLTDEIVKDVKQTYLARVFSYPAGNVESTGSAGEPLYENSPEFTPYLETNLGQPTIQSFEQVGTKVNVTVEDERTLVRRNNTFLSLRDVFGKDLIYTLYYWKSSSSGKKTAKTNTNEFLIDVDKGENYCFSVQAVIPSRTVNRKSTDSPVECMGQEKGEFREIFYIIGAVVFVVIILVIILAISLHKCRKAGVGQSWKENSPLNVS

IC50 [nM] | SMILES
8.9 | C=Cc1cc(O)cc(C(Nc2ccc(C(=N)N)cc2)c2nn(-c3ncccn3)c(=O)[nH]2)c1 (racemic) [Example 47, 4-{[(3-hydroxy-5-vinylphenyl)-(5-oxo-1-pyrimidin-2-yl-4,5-dihydro-1H-[1,2,4]triazol-3-yl)methyl]amino}benzamidine]
24.8 | CCOc1cc(COC)cc(C(Nc2ccc(C(=N)N)cc2)c2nn(-c3ncccn3)c(=O)[nH]2)c1 (stereo not drawn) [Example 83, 4-{[(3-ethoxy-5-methoxymethylphenyl)-(5-oxo-1-pyrimidin-2-yl-4,5-dihydro-1H-[1,2,4]triazol-3-yl)methyl]amino}benzamidine acetate]
5.1 | COc1cc(OCCCO)c(F)c(C(Nc2ccc(C(=N)N)cc2)c2nn(-c3ncccn3)c(=O)[nH]2)c1 (racemic) [Example 229, (R) and (S)-4-{[[2-Fluoro-3-(3-hydroxypropoxy)-5-methoxyphenyl]-(5-oxo-1-pyrimidin-2-yl-4,5-dihydro-1H-[1,2,4]triazol-3-yl)methyl]amino}benzamidine acetate]
5.4 | CCOC(=O)c1cn[nH]c1-n1nc(C(Nc2ccc(C(=N)N)cc2)c2cc(OC)c3c(c2F)OCCCO3)[nH]c1=O (stereo not drawn) [Example 192, 5-{3-[(4-Carbamimidoylphenylamino)-(6-fluoro-9-methoxy-3,4-dihydro-2H-benzo[b][1,4]dioxepin-7-yl)methyl]-5-oxo-4,5-dihydro-[1,2,4]triazol-1-yl}-1H-pyrazole-4-carboxylic acid ethyl ester acetate]
11.9 | COc1cc(C(Nc2ccc(C(=N)N)cc2)c2nn(-c3ncccn3)c(=O)[nH]2)cc(F)c1OC (racemic) [Example 116, (R) and (S)-4-{[(3-fluoro-4,5-dimethoxyphenyl)-(5-oxo-1-pyrimidin-2-yl-4,5-dihydro-1H-[1,2,4]triazol-3-yl)methyl]amino}benzamidine acetate]
1.5 | C#Cc1cc(O[C@H]2CCOC2)cc(C(Nc2ccc(C(=N)N)cc2)c2nn(-c3ncccn3)c(=O)[nH]2)c1 (mixture of isomers) [Example 45(2), 4-[((R) and (S)-{3-ethynyl-5-[(S)-(tetrahydrofuran-3-yl)oxy]phenyl}-(5-oxo-1-pyrimidin-2-yl-4,5-dihydro-1H-[1,2,4]triazol-3-yl)methyl)amino]benzamidine acetate]
21 | COc1cc(OC)c(F)c(C(Nc2ccc(C(=N)N)cc2)c2nn(-c3ncc[nH]c3=O)c(=O)[nH]2)c1 (racemic) [Example 154, (R) and (S)-4-({(2-fluoro-3,5-dimethoxyphenyl)-[5-oxo-1-(3-oxo-3,4-dihydropyrazin-2-yl)]-4,5-dihydro-1H-[1,2,4]triazol-3-yl]methyl}amino)benzamidine acetate]
4.2 | COc1cc(OCCF)cc(C(Nc2ccc(C(=N)N)cc2)c2nn(-c3cccnn3)c(=O)[nH]2)c1 (racemic) [Example 64, (R) and (S)-4-({[3-(2-fluoroethoxy)-5-methoxyphenyl]-(5-oxo-1-pyridazin-3-yl-4,5-dihydro-1H-[1,2,4]triazol-3-yl)methyl}amino)benzamidine acetate]
3 | COc1cc(O[C@H]2CCOC2)cc(C(Nc2ccc(C(=N)N)cc2)c2nn(-c3ncccn3)c(=O)[nH]2)c1 (mixture of isomers) [Example 4, 4-{[(R) and (S)-{3-methoxy-5-[(S)-(tetrahydrofuran-3-yl)oxy]phenyl}-(5-oxo-1-pyrimidin-2-yl-4,5-dihydro-1H-[1,2,4]triazol-3-yl)methyl]amino}benzamidine acetate]
14.1 | COc1cc(C(Nc2ccc(C(=N)N)c(F)c2)c2nn(-c3ccccc3C(=O)O)c(=O)[nH]2)cc(C)n1 (racemic) [Example 173, 2-{3-[(R) and (S)-(4-carbamimidoyl-3-fluorophenylamino)-(2-methoxy-6-methylpyridin-4-yl)methyl]-5-oxo-4,5-dihydro-[1,2,4]triazol-1-yl}benzoic acid]
9.2 | COc1ccc(C(Nc2ccc(C(=N)N)cc2)c2nn(-c3cccnn3)c(=O)[nH]2)cc1OC (racemic) [Example 149, (R) and (S)-4-{[(3,4-dimethoxyphenyl)-(5-oxo-1-pyridazin-3-yl-4,5-dihydro-1H-[1,2,4]triazol-3-yl)methyl]amino}benzamidine acetate]
22.6 | COc1cc(OCCN(C)C)cc(C(Nc2ccc(C(=N)N)cc2)c2nn(-c3ncccn3)c(=O)[nH]2)c1 (racemic) [Example 8, (R) and (S)-4-({[3-(2-dimethylaminoethoxy)-5-methoxyphenyl]-(5-oxo-1-pyrimidin-2-yl-4,5-dihydro-1H-[1,2,4]triazol-3-yl)methyl}amino)benzamidine diacetate]
8.7 | COc1cc(OC)c(F)c(C(Nc2ccc(C(=N)N)cc2)c2nn(-c3cccnn3)c(=O)[nH]2)c1 (racemic) [Example 145, (R) and (S)-4-{[(2-fluoro-3,5-dimethoxyphenyl)-(5-oxo-1-pyridazin-3-yl-4,5-dihydro-1H-[1,2,4]triazol-3-yl)methyl]amino}benzamidine acetate]
4.5 | COc1cc(C(Nc2ccc(C(=N)N)cc2)c2nn(-c3ncccn3)c(=O)[nH]2)c(F)c(OC)c1OC (racemic) [Example 67, (R) and (S)-4-{[(2-fluoro-3,4,5-trimethoxyphenyl)-(5-oxo-1-pyrimidin-2-yl-4,5-dihydro-1H-[1,2,4]triazol-3-yl)methyl]amino}benzamidine acetate]
6.8 | CCOc1cc(C(Nc2ccc(C(=N)N)cc2)c2nn(-c3ncccc3N)c(=O)[nH]2)ccc1OC (racemic) [Example 35, (R) and (S)-4-({[1-(3-aminopyridin-2-yl)-5-oxo-4,5-dihydro-1H-[1,2,4]triazol-3-yl]-(3-ethoxy-4-methoxyphenyl)methyl}amino)benzamidine acetate]
11.3 | COc1cc(F)c(C(Nc2ccc(C(=N)N)cc2)c2nn(-c3ncccn3)c(=O)[nH]2)cc1OC (racemic) [Example 111, 4-{[(R) and (S)-(2-fluoro-4,5-dimethoxyphenyl)-(5-oxo-1-pyrimidin-2-yl-4,5-dihydro-1H-[1,2,4]triazol-3-yl)methyl]amino}benzamidine acetate]
8.5 | COc1cc(C(Nc2ccc(C(=N)N)cc2)c2nn(-c3cccnn3)c(=O)[nH]2)cc(OC)c1OC (racemic) [Example 88, 4-{[(R) and (S)-(5-oxo-1-pyridazin-3-yl-4,5-dihydro-1H-[1,2,4]triazol-3-yl)-(3,4,5-trimethoxyphenyl)methyl]amino}benzamidine trifluoroacetate]
12.5 | CCOc1cc(OCCF)cc(C(Nc2ccc(C(=N)N)cc2)c2nn(-c3ncccn3)c(=O)[nH]2)c1 (racemic) [Example 78, (R) and (S)-4-({[3-ethoxy-5-(2-fluoroethoxy)phenyl]-(5-oxo-1-pyrimidin-2-yl-4,5-dihydro-1H-[1,2,4]triazol-3-yl)methyl}amino)benzamidine trifluoroacetate]
11.3 | COc1cc(OCCO)c(F)c(C(Nc2ccc(C(=N)N)cc2)c2nn(-c3ncccc3N)c(=O)[nH]2)c1 (stereo not drawn) [Example 200, 4-({[1-(3-Aminopyridin-2-yl)-5-oxo-4,5-dihydro-1H-[1,2,4]triazol-3-yl]-[2-fluoro-3-(2-hydroxyethoxy)-5-methoxyphenyl]methyl}amino)benzamidine]
9.5 | CCOc1cc(OCCO)c(F)c(C(Nc2ccc(C(=N)N)cc2)c2nn(-c3ncccn3)c(=O)[nH]2)c1 (racemic) [Example 219, (R) and (S)-4-{[[5-Ethoxy-2-fluoro-3-(2-hydroxyethoxy)phenyl]-(5-oxo-1-pyrimidin-2-yl-4,5-dihydro-1H-[1,2,4]triazol-3-yl)methyl]amino}benzamidine acetate]
6.2 | COCCOc1ccc(C(Nc2ccc(C(=N)N)cc2)c2nn(-c3ccsc3C(=O)O)c(=O)[nH]2)cc1OC (racemic) [Example 195, 3-(3-{(R) and (S)-(4-Carbamimidoylphenylamino)-[3-methoxy-4-(2-methoxyethoxy)phenyl]methyl}-5-oxo-4,5-dihydro-[1,2,4]triazol-1-yl)thiophene-2-carboxylic acid]
